# Columns and labels:
# [1] = molecular target: T1, Chk1 (Homo sapiens, UniProt O14757); experiment: Chk1 kinase assay: incorporation of γ-33P ATP into immobilized myelin basic protein; format: biochemical; details: 10 nM Chk1, 10 μM unlabeled ATP, 1 hour at room temperature; read-out: Chk1 inhibition, IC50
# T1 construct: purchased Upstate Biotechnology
# T1 sequence (O14757 1-476): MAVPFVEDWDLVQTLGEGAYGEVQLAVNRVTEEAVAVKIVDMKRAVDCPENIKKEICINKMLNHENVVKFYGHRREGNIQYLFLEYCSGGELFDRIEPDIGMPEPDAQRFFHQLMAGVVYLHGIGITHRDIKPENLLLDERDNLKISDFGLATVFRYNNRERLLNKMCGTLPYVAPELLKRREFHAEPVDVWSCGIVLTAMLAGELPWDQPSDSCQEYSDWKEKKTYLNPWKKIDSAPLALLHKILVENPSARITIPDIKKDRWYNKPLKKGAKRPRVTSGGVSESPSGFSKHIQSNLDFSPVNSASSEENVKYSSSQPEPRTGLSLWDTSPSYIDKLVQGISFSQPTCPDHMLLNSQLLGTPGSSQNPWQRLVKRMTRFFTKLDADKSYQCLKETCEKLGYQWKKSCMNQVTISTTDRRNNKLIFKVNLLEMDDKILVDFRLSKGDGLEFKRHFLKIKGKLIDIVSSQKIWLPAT
# Method in brief: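 MBP coated on plates (20 μg/ml) was phosphorylated by Chk1 (10 nM) or Chk2 (20 nM) with γ-33P ATP plus 10 μM (Chk1) or 30 μM (Chk2) unlabeled ATP, 1 h at room temperature, 1% DMSO. Bound radioactivity was counted by scintillation after washing; IC50 or Ki derived from fitted rate data.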
# [2] = molecular target: KDR (Homo sapiens, UniProt P35968); experiment: Kinase specificity assay (33P phosphoryl transfer, LCCA or AlphaScreen); format: biochemical; details: ATP close to KM; read-out: KDR inhibition, IC50
# Protocol: Kinase activity and compound inhibition are investigated using one or more of the three assay formats described below. The ATP concentrations for each assay are selected to be close to the Michaelis-Menten constant (KM) for each individual kinase. Dose-response experiments are performed at 10 different inhibitor concentrations in a 384-well plate format.
# The coating solution is aspirated and the plates are washed once with 50 μL of assay buffer and padded dry. […] The plates are subsequently washed 6-12 times with PBST or TBS buffer.
# Sequence of KDR (P35968 20-1356): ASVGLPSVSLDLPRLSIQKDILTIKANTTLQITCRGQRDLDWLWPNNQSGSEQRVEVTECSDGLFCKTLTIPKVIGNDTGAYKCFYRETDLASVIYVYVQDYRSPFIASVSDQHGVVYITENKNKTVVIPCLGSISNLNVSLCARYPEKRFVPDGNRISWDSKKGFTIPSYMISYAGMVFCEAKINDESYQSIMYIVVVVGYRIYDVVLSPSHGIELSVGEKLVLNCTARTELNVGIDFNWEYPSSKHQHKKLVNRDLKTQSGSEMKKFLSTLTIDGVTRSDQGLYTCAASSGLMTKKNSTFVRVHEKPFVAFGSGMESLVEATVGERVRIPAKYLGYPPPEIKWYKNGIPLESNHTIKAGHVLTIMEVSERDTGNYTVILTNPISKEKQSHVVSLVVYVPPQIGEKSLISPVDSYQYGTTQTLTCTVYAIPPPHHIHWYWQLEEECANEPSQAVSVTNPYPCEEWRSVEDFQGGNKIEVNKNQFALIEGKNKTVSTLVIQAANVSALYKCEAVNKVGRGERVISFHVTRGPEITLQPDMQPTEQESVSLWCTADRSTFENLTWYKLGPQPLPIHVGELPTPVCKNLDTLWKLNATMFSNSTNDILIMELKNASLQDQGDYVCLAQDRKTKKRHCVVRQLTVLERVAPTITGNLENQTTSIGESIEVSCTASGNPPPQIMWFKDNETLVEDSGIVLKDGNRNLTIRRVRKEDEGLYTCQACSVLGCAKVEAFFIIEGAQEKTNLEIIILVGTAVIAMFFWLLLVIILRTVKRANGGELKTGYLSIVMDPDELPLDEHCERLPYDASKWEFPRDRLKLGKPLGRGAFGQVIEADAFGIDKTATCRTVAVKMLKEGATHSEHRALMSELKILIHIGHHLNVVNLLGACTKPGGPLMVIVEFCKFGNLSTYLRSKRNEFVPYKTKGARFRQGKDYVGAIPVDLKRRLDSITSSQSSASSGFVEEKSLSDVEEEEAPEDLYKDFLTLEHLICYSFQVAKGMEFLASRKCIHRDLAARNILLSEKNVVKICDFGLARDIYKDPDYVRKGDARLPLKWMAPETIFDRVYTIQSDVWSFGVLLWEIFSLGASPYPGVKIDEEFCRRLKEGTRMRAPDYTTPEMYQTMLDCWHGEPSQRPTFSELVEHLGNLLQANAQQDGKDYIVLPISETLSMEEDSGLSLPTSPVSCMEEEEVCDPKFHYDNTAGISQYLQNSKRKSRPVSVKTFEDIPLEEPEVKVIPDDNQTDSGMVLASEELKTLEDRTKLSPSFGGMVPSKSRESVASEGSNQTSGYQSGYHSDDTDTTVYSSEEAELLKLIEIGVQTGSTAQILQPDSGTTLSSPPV
compound,measurement,setting,value
"NC(=O)c1nc(-c2cccc3ccccc23)cnc1N [Example 2, 3-Amino-6-naphthalen-1-ylpyrazine-2-carboxamide]",IC50,[1],< 50 nM
same,IC50,[2],50 to 1000 nM
